Assay results from ChEMBL document CHEMBL1133335, “Serendipitous synthesis of novel dehydro- and dechloro-pseudomycin B (PSB) derivatives” (Bioorg Med Chem Lett, 2000).
Converted amounts (≈) assume the structure as drawn. Where a SMILES comes first, the peptide text is derived from it. Bridges are numbered along the chain shown (N, C = ends). [ ]: non-standard residue; d: D form. The star is where a group is joined. Tetradecanoyl(3R-OH) = CCCCCCCCCCC[C@@H](O)CC(=O)*; Asp(3S-OH) = N[C@H](C(=O)O)[C@H](O)C(=O)O; Thr(4-Cl) = N[C@H](C(=O)O)[C@H](O)CCl; aThr = C[C@H](O)[C@H](N)C(=O)O; dDab = NCC[C@@H](N)C(=O)O; Dab = NCC[C@H](N)C(=O)O; Dhb = C/C=C(\N)C(=O)O

Key:
Mus musculus [1] = test: Compound (at 20 mg/kg) was tested to induce tail vein irritation in mice; Negative; assay type: ADME, organism-based; design: dose 20 mg/kg; conditions: in vivo
Aspergillus fumigatus = test: In vitro minimum inhibitory concentration against Aspergillus fumigatus; assay type: functional
Candida albicans = test: In vitro minimum inhibitory concentration against Candida albicans; assay type: functional
Cryptococcus neoformans = test: In vitro minimum inhibitory concentration against Cryptococcus neoformans; assay type: functional
Mus musculus [2] = test: Compound (at 20 mg/kg) was tested to induce tail vein irritation in mice; Positive; assay type: ADME, organism-based; design: dose 20 mg/kg; conditions: in vivo

| Compound | Tail vein toxicity (Mus musculus [1]) | MIC (Aspergillus fumigatus) | MIC (Candida albicans) | MIC (Cryptococcus neoformans) | Tail vein toxicity (Mus musculus [2]) |
| --- | --- | --- | --- | --- | --- |
| C/C=C1\NC(=O)[C@H]([C@@H](C)O)NC(=O)[C@@H](CCN)NC(=O)[C@H](CCCCN)N2C(=O)C[C@@H](NC(=O)[C@H](CCN)NC(=O)C(NC(=O)C[C@@H](O)CCCCCCCCCCC)COC(=O)[C@@H]([C@@H](O)CCl)NC(=O)[C@H]([C@H](O)C(=O)O)NC1=O)C2=O (stereo not given in full) | Negative | > 20 µg/mL | > 20 µg/mL | 10 µg/mL (≈ 8.41 µM) | – |
| C/C=C1\NC(=O)[C@H]([C@H](C)O)NC(=O)[C@H](CCN)NC(=O)[C@H](CCCCN)NC(=O)[C@H]2CC(=O)O[C@H](C(=O)O)[C@H](NC1=O)C(=O)N[C@@H]([C@H](O)CCl)C(=O)OC[C@H](NC(=O)C[C@H](O)CCCCCCCCCCC)C(=O)N[C@H](CCN)C(=O)N2 | Negative | > 20 µg/mL | 5 µg/mL (≈ 4.2 µM) | 0.625 µg/mL (≈ 0.525 µM) | – |
| C/C=C1\NC(=O)[C@H]([C@H](C)O)NC(=O)[C@H](CCN)NC(=O)[C@H](CCCCN)N2C(=O)C[C@H](NC(=O)[C@@H](CCN)NC(=O)[C@@H](NC(=O)C[C@H](O)CCCCCCCCCCC)COC(=O)/C(=C\CO)NC(=O)[C@H]([C@H](O)C(=O)O)NC1=O)C2=O | – | > 20 µg/mL | > 20 µg/mL | 20 µg/mL (≈ 17.3 µM) | – |
| C/C=C1\NC(=O)[C@H]([C@H](C)O)NC(=O)[C@H](CCN)NC(=O)[C@H](CCCCN)NC(=O)[C@H](CC(=O)O)NC(=O)[C@@H](CCN)NC(=O)[C@@H](NC(=O)C[C@H](O)CCCCCCCCCCC)COC(=O)[C@H]([C@H](O)CCl)NC(=O)[C@H]([C@H](O)C(=O)O)NC1=O [PSEUDOMYCIN B] ({Tetradecanoyl(3R-OH)}-S[dDab]DK[Dab][aThr][Dhb][Asp(3S-OH)][Thr(4-Cl)]; ester 1-C) | – | 20 µg/mL (≈ 16.6 µM) | 0.312 µg/mL (≈ 0.258 µM) | < 0.01 µg/mL | POSITIVE |
